Key:
[1] = species: Rattus norvegicus; assay: Hill coefficient of the compound; conditions: in vitro
[2] = molecular target: Voltage-gated L-type calcium channel (Rattus norvegicus, UniProt P22002+Q02485+P27732); assay: Inhibition of [3H]nitrendipine binding to L-type calcium channel from rat brain cortex homogenate
[3] = tested on: Canis familiaris; assay: The compound was tested for coronary vasodilating activity in anesthetized coronary perfused dogs; type: functional, Canis lupus familiaris

Row | SMILES | Hill coefficient [1] | Ki [2] | ED100 [3]
1 | CO/C(O)=C1\C(C)=NC(C)=C(C(=O)O[C@H]2CCN(Cc3ccccc3)C2)[C@H]1c1cccc([N+](=O)[O-])c1.Cl | 1.203 | 0.205 nM l-1 | 0.57 µg
2 | CO/C(O)=C1\C(C)=NC(C)=C(C(=O)O[C@@H]2CCN(Cc3ccccc3)C2)[C@@H]1c1cccc([N+](=O)[O-])c1.Cl | 1.143 | 14.3 nM l-1 | 3.1 µg
3 | CO/C(O)=C1\C(C)=NC(C)=C(C(=O)O[C@@H]2CCN(Cc3ccccc3)C2)[C@H]1c1cccc([N+](=O)[O-])c1.Cl | 0.752 | 3.09 nM l-1 | 1.6 µg
4 | CO/C(O)=C1\C(C)=NC(C)=C(C(=O)O[C@H]2CCN(Cc3ccccc3)C2)[C@@H]1c1cccc([N+](=O)[O-])c1.Cl (racemic) | 0.957 | 49.6 nM l-1 | 9.1 µg
5 | COC(=O)C1=C(C)NC(C)=C(C(=O)OC)C1c1ccccc1[N+](=O)[O-] [NIFEDIPINE] | 1.105 | – | –

Continued, in another order:

Row | Hill coefficient [1] | Ki [2] | SMILES | ED100 [3]
6 | 1.286 | 0.499 nM l-1 | COC(=O)C1=C(C)NC(C)=C(C(=O)OCCN(C)Cc2ccccc2)[C@H]1c1cccc([N+](=O)[O-])c1 | –
7 | 1.241 | 7.11 nM l-1 | COC(=O)C1=C(C)NC(C)=C(C(=O)OCCN(C)Cc2ccccc2)[C@@H]1c1cccc([N+](=O)[O-])c1 | –
8 | 1.054 | 0.84 nM l-1 | COC(=O)C1=C(C)NC(C)=C(C(=O)OCCN(C)Cc2ccccc2)C1c1cccc([N+](=O)[O-])c1 (racemic) [NICARDIPINE] | –
